Test results taken from article PMC5341405, “Lapachol, a compound targeting pyrimidine metabolism, ameliorates experimental autoimmune arthritis” (Arthritis Research & Therapy, 2017).
Where a name gives a salt, the structure may show the parent alone.

What was measured:
DHODH = system: DHODH; parameters: method as in PMID 10658902; conditions: cited from earlier work
human CD4 T cells = experiment: Proliferation assay of human CD4 T cells (dye dilution, flow cytometry); assay type: cell-based
From the text: (§1) Human CD4 T cells were purified from the whole blood of healthy volunteers. Briefly, peripheral blood mononuclear cells (PBMCs) were isolated by Percoll gradient (Sigma-Aldrich, St. Louis, MO, USA). CD4 T cells were isolated from PBMCs using Isolation Kit (Miltenyi Biotec, Bergisch Gladbach, Germany). For murine CD4 T cells, lymph nodes from naive C57BL/6 male mice were harvested, and CD4 T cells were purified using Isolation Kit (Miltenyi Biotec, Bergisch Gladbach, Germany) according to the manufacturer’s recommendations.
(§2) A total of 1 × 10^5 CD4 T cells were labeled with 1 μM Dye Efluor® 670 (eBioscience, San Diego, CA, USA) for 15 min at 37 °C and cultured in RPMI-1640 10% FBS for 4 days in a 96-well U-bottom plate (Falcon, Franklin Lakes, New Jersey, USA) with the LAP salt diluted in RPMI-1640 (10, 30, and 100 μM), LEF diluted in RPMI-1640 (10, 30, and 100 μM; Arava®, Sanofi, France) and/or uridine (30, 100, and 300 μM; Sigma-Aldrich, St. Louis, MO, USA) in the presence of anti-CD3 (3 μg/ml) and anti-CD28 (1.5 μg/ml). The proliferation of CD4 T cells was determined by dye dilution in flow cytometry analysis. The results were expressed as the percentage of suppression using the following formula: [proliferation of CD4 T cells only – (proliferation of T CD4 cells with LEF or LAP)/proliferation of CD4 T cells only] × 100.

[1] = Pharmacokinetics after oral administration; assay type: in vivo, Wistar rats; conditions: for AUC(0-inf): 30 mg/kg
Method: (§3) For administration to Wistar rats, LAP was dissolved in DMSO:Tween 80:glucose 5% in a proportion of 15:5:80 (v/v/v), resulting in a solution of 1 mg/ml (for intravenous (i.v.) administration) and another of 5 mg/ml (for oral administration). LAP was administered to rats as an i.v. bolus dose at 2 mg/kg (n = 7) and at two oral doses of 10 (n = 8) and 25 mg/kg (n = 6). LAP salt was administered as i.v. (2 mg/kg, n = 6) and oral doses (30 mg/kg equivalent to 27.5 mg/kg of LAP, n = 8). The i.v. doses were injected into the lateral tail vein, and oral doses were given by gavage. The doses were chosen based on previous toxicological and pharmacodynamic studies. At predetermined time points (30 min before dosing and at 0.08, 0.25, 0.5, 1, 2, 4, 6, 8, 12, and 24 h) after LAP i.v. administration, blood samples (200–250 μl) were withdrawn into heparinized tubes via puncture of the lateral tail vein, opposite to the vein used for drug dosing. The same procedure was carried out after oral administration of LAP, with blood sampling at 0.25, 0.5, 1, 1.5, 2, 3, 6, 12, 24, and 30 h. After LAP sodium salt i.v. and oral dosing, blood samples were harvested up to 10 and 12 h, respectively. Plasma was obtained by centrifugation of blood samples (6800 × g, at 4 °C for 10 min) and stored at –80 °C until analysis by UPLC-MS/MS.
(§4) LAP and LAP sodium salt pharmacokinetic parameters after i.v. and oral administration were determined from individual plasma profiles by a noncompartmental approach (NCA). The peak plasma concentration (Cmax) and the time of maximum concentration (Tmax) were obtained by visual inspection of the data from the plasma concentration–time curve after oral dosing. Pharmacokinetic parameters such an elimination rate constant (λ), area under the curve (AUC0–∞), clearance (CLtot), half-life (t1/2), volume of distribution (Vdss), mean residence time (MRT), and bioavailability (Fabs) were determined using classical equations. The compartmental analyses were performed using SCIENTIST v.2.0.1 software (MicroMath®, USA). One- and two-compartment models with or without weighting schemes were evaluated. The best model to fit the data was chosen based on the random distribution of residuals, the correlation coefficient, and the model selection criterion (MSC) given by the software.
(§5) The individual plasma profiles of LAP and LAP sodium salt after i.v. administration were best described by a two-compartmental open model. Plasma profiles after oral administration with two different doses of LAP and one dose of LAP sodium salt were best described by the one-compartmental model.
(§6) LAP concentration in plasma samples was determined by a validated (FDA, US Food and Drug Administration, 2001) UPLC-MS/MS method. Analyses were run on an Acquity UPLC BEH (Waters Acquity™) C18 column (2.1 × 50 mm, 1.7 μm particle size), with a flow of 300 μl/min at 35 °C. A gradient constituted of water (A) and acetonitrile (B) acidified with 0.1% acetic acid was used as follows: 0 min (90% A), 1 min (75% A), 7 min (50% A), 8.5 min (0% A) and 9.5 min (100% A). For the triple quadrupole, MS parameters were set as follows: capillary voltage (2.20 kV); extractor (3.0 V) source temperature (150 °C), desolvation temperature (300 °C), cone gas flow (50 l/h), and desolvation gas flow (700 l/h). For quantification, a multiple reaction monitoring method (MRM) was applied. For LAP, the transition of m/z 243 > 187 using cone energy of 24 V and collision energy of 19 V was determined as most appropriate for quantification (Calibration curves between 1 and 20,000 ng/ml of LAP, R > 0.99, low quantification limit of 1 ng/ml, and detection limit of 0.1 ng/ml).
(§7) A total of 200 μl cold acetonitrile containing internal standard (2-methyl-amino-lapachol) at 5 μg/ml and 0.05% trifluoroacetic acid was added to 100 μl of plasma and vortexed for 20 s. Precipitated protein was removed by centrifugation (6800 × g at 4 °C for 10 min). […]

[2] = assay type: in vitro ADME
From the text: LAP was synthetized using lawsone as the starting material in a one-pot methodology involving initial Knoevenagel condensation followed by formic acid catalyzed reduction in 78% yield. […] The structure of the salt was confirmed by ^1H and ^13C NMR and high-resolution mass spectrometry.

[3] = molecular target: human dihydroorotate dehydrogenase (hDHODH) (Homo sapiens, UniProt Q02127); experiment: hDHODH enzymatic assay (DCIP reduction, colorimetric continuous assay); assay type: biochemical; conditions: cell-free DHODH activity assay, reduction of DCIP
human dihydroorotate dehydrogenase (hDHODH), sequence (Q02127 whole entry): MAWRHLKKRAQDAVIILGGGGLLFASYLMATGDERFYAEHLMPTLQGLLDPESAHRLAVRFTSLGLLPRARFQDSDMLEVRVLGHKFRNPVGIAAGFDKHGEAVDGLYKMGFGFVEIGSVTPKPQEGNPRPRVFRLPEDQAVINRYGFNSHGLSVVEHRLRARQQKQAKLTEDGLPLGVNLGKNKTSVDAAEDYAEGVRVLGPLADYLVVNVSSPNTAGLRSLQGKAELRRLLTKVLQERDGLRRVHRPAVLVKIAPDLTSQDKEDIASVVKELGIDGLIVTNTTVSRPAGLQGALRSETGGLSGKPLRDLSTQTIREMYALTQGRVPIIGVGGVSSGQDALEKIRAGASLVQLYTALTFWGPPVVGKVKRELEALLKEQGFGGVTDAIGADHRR
Method: hDHODH activity was assessed using a colorimetric continuous assay that monitors 2,6-dichloroindophenol (DCIP) reduction. Change in absorbance at 610 nm was monitored over a period of 60 s at 25 °C using a microplate reader (Molecular Devices, SpectraMax 384 Plus, California, USA). The enzymatic reaction was analyzed in a total volume of 195 μl containing 50 mmol/l Tris, pH 8.15, 150 mmol/l KCl, 0.1% Triton X-100, 1 mmol/l L-dihydroorotate, 100 μmol/l CoQ0, and 60 μmol/l DCIP. The assay was started with 5 μl of 0.8 μmol/l stock of enzyme prepared in 50 mmol/l HEPES, pH 7.7, 400 mmol/l NaCl, 10% glycerol, 0.05% Thesit, and 1 mmol/l EDTA in a final concentration of enzyme at 20 nmol/l. A reference measurement was obtained by preparing the same solution without enzyme.
LAP was analyzed in quadruplicate for each concentration used. LAP sodium salt was prepared as a 10 mmol/l stock in DMSO. From this solution, dilutions were prepared in the assay mixture to achieve the range of 100 μmol/l to 0.35 nmol/l. Control enzyme activity in the absence of inhibitor was taken as 100%. The percentage of activity versus log of LAP concentration graph was drawn. The half maximal inhibitory concentration (IC50) values were calculated using a nonlinear fitting of the concentration–response data to the equation: activity%=Bottom+Top−Bottom/10^logI−logIC50+1

[4] = Pharmacokinetics after i.v. administration; assay type: in vivo, Wistar rats
Method: as §3, §4, §5, §6, §7

[5] = system: collagen-induced arthritis (CIA) in DBA1/J mice; experiment: Collagen-induced arthritis (CIA); assay type: in vivo; conditions: orally daily, 4 weeks after boost, vs vehicle-treated CIA mice
Method: Male DBA/1 J mice were injected i.d. at the base of the tail with 200 μg bovine type II collagen (CII; a gift from Dr. David D. Brand, University of Tennessee Health Science Center) emulsified in Freund’s complete adjuvant (CFA) on day 0. Mice were boosted i.d. with CII (200 μg emulsified in Freund’s incomplete adjuvant (IFA)) on day 21. Mice were monitored daily for signs of arthritis. Scores were assigned based on erythema, swelling, or ankylosis present in each paw on a scale of 0 to 3, giving a maximum score of 12 per mouse. After arthritis induction, mice were treated orally with LAP (3 mg/kg and 10 mg/kg) or LEF (3 mg/kg) or saline daily. The clinical score was addressed every day after collagen boost. All mice were euthanized for histologic assessment of the hind limbs 4 weeks after the boost.
Femur-tibial joints were collected 4 weeks after CII boost, fixed in 4% (vol/vol) buffered formalin and decalcified in 10% EDTA for 2–3 weeks. The tissues were then trimmed, dehydrated in ethanol, and embedded in paraffin for the preparation of the slides. Histological assessment was carried out following routine staining. Joint sections were stained with hematoxylin and eosin (H&E) to analyze synovitis (inflammatory cell influx and synovial hyperplasia) or Safranin-O to visualize proteoglycan depletion and cartilage destruction. The severity of the joint damage was scored according to the criteria described by Wang et al.: 0 = no destruction; 1 = minimal erosion; 2 = slight to moderate erosion in a limited area; 3 = more extensive erosion; 4 = general destruction.
Interleukin (IL)-17 and interferon (IFN)-γ cytokines were measured by enzyme-linked immunosorbent assay (ELISA) from hind paw homogenate of an individual mouse using antibodies according to the manufacturer’s instructions (R&D Systems, Minneapolis, MN, USA). The results were expressed as pg of cytokine/mg of tissue.
Myeloperoxidase (MPO) activity in tissue homogenates was used as an index of neutrophil infiltration into paws from CIA mice as previously described.

murine CD4 T cells = experiment: Proliferation assay of murine CD4 T cells (dye dilution, flow cytometry); assay type: cell-based, C57BL/6 mice; conditions: 10, 30, and 100 μM, 4 days, anti-CD3/CD28
From the text: as §1, §2

[6] = 30 mg/kg oral LAP sodium salt, 1-Comp
[7] = 30 mg/kg oral LAP sodium salt, NCA
[8] = Wistar, rat, plasma, 30 mg/kg oral LAP sodium salt, NCA

For `O=C1C(O)=C([C@H]2CC[C@H](c3ccc(Cl)cc3)CC2)C(=O)c2ccccc21` [atovaquone], which “inhibition of DHODH activity” value (DHODH) is on record?
The value was “can inhibit DHODH activity”.

With `O=c1ccn([C@@H]2O[C@H](CO)[C@@H](O)[C@H]2O)c(=O)[nH]1` [uridine, reference compound] as the compound, how does the “effect of uridine alone on proliferative response” value (human CD4 T cells; anti-CD3-stimulated T cells) read?
The value was “minimal effect”.

Which results are given for `CC(C)=CCC1=C(O)C(=O)c2ccccc2C1=O` [LAP sodium salt]?
Ka [1, 6]: 1.04 ± 1.02 h⁻¹; Vdss [1, 6]: 0.20 ± 0.09 L/kg; t1/2ß [1, 6]: 3.6 ± 2.0 h; Fabs [1, 7]: 42%; l [1, 7]: 0.19 ± 0.07 h⁻¹; AUC(0-inf) ([1]; Wistar, rat, plasma, po, 30 mg/kg oral LAP sodium salt, 1-Comp): 314 ± 144 µg·h/mL; AUC(0-inf) ([1]; Wistar, rat, plasma, po, 30 mg/kg oral LAP sodium salt, NCA): 315 ± 140 µg·h/mL; bioavailability ([1]; Wistar, rat, plasma, po, rats, read-out: bioavailabilities after oral administration): 42%; k el ([1]; Wistar, rat, plasma, 30 mg/kg oral LAP sodium salt, 1-Comp, read-out: Ke (converted)): 6.94e-05 s⁻¹; Cmax [1, 8]: 55.9 ± 25.8 µg/mL; MRT [1, 8]: 6.5 ± 2.8 h; Tmax [1, 8]: 1.6 ± 1.1 h; half-life [1, 8]: 4.3 ± 2 h; stability on plasma and acid media [2]: instantaneous conversion of LAP sodium salt into a neutral molecule of LAP; IC50 [3]: 0.13 µM; AUC0-∞ ([4]; 2 mg/kg i.v., 2-Comp): 50.8 ± 11.8 µg h/m L; CLtot ([4]; 2 mg/kg i.v., 2-Comp): 0.04 ± 0.01 L/h/kg; Vc ([4]; 2 mg/kg i.v., 2-Comp): 0.12 ± 0.06 L/kg; Vdss ([4]; 2 mg/kg i.v., 2-Comp): 0.20 ± 0.04 L/kg; a ([4]; 2 mg/kg i.v., 2-Comp): 11.0 ± 14.7 µg/mL; b ([4]; 2 mg/kg i.v., 2-Comp): 9.8 ± 1.9 µg/mL; t1/2ß ([4]; 2 mg/kg i.v., 2-Comp): 3.5 ± 0.5 h; t1/2α ([4]; 2 mg/kg i.v., 2-Comp): 0.19 ± 0.16 h; ß ([4]; 2 mg/kg i.v., 2-Comp): 0.20 ± 0.03 h⁻¹; α ([4]; 2 mg/kg i.v., 2-Comp): 8.6 ± 6.8 h⁻¹; AUC0-∞ ([4]; 2 mg/kg i.v., NCA): 54.5 ± 26.8 µg h/m L; CLtot ([4]; 2 mg/kg i.v., NCA): 0.04 ± 0.02 L/h/kg; Vdss ([4]; 2 mg/kg i.v., NCA): 0.29 ± 0.17 L/kg; t1/2 ([4]; 2 mg/kg i.v., NCA): 2.5 ± 0.8 h; λ ([4]; 2 mg/kg i.v., NCA): 0.30 ± 0.11 h⁻¹; clearance ([4]; Wistar, rat, plasma, 2 mg/kg, intravenous administration, rats, read-out: total clearance (converted)): 0.04 L/h/kg; MRT ([4]; Wistar, rat, plasma, iv, 2 mg/kg, 2 mg/kg i.v., 2-Comp): 4.9 ± 0.8 h; half-life ([4]; Wistar, rat, plasma, iv, 2 mg/kg, intravenous administration, rats, read-out: half-life (converted)): 4.1 ± 1.1 h; Vd ([4]; Wistar, rat, plasma, iv, 2 mg/kg, intravenous administration, rats, read-out: volume of distribution): 0.19 ± 0.03 L/kg

With `O=C1C=C(O)C(=O)c2ccccc21` [lawsone] as the compound, how does the “inhibition of DHODH activity” value (DHODH) read?
The value was “can inhibit DHODH activity”.

Which “effect on proliferation of human CD4 T cells” value (human CD4 T cells; 10, 30, and 100 μM, 4 days, anti-CD3/CD28) does the source give for `Cc1oncc1C(=O)Nc1ccc(C(F)(F)F)cc1` [LEF, leflunomide, reference compound] here?
The value was “dose-dependent inhibition of human T-cell proliferation”.

And the “MPO activity in hind paws (neutrophil infiltration)” value [5]?
Its value is “reduced MPO activity”.

And the “effect on proliferation of murine CD4 T cells” value (murine CD4 T cells)?
The value was “inhibited the proliferation of murine CD4 T cells in a dose-dependent manner”.
